From PubChem BioAssay (NCI)
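All cell lines were grown in 96-well plates and treated with compound for 48 hours. At the GI50, growth is halved. TGI: total growth inhibition.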

Columns and labels:
Test in all cases: NCI-60 cell line screen, 48 h
[1] = system: SK-OV-3 ovarian
[2] = system: MALME-3M melanoma
[3] = system: SF-268 CNS
[4] = system: EKVX NSCLC
[5] = system: CCRF-CEM leukemia
[6] = system: A498 renal
[7] = system: DU-145 prostate
[8] = system: OVCAR-8 ovarian
[9] = system: SK-MEL-5 melanoma
[10] = system: CAKI-1 renal
[11] = system: NCI-H522 lung
[12] = system: NCI-H460 lung
[13] = system: SF-295 CNS
[14] = system: KM12 colon
[15] = system: 786-0 renal
[16] = system: SR leukemia
[17] = system: MCF7 breast
[18] = system: NCI/ADR-RES ovarian
[19] = system: U251 CNS
[20] = system: TK-10 renal
[21] = system: ACHN renal
[22] = system: UO-31 renal
[23] = system: K-562 leukemia
[24] = system: NCI-H23 lung
[25] = system: UACC-257 melanoma
[26] = system: MDA-MB-231 breast
[27] = system: HOP-92 NSCLC
[28] = system: HOP-62 NSCLC
[29] = system: BT-549 breast
[30] = system: M14 melanoma
[31] = system: RXF 393 renal
[32] = system: MDA-MB-435
[33] = system: HCT-116 colon
[34] = system: T-47D breast
[35] = system: SNB-19 CNS
[36] = system: SK-MEL-2 melanoma
[37] = system: HT29 colon
[38] = system: HL-60(TB) leukemia
[39] = system: SNB-75 CNS
[40] = system: A549 NSCLC
[41] = system: HCT-15 colon
[42] = system: COLO 205 colon
[43] = system: NCI-H226 lung
[44] = system: LOX IMVI melanoma
[45] = system: PC-3 prostate
[46] = system: IGROV1 ovarian
[47] = system: OVCAR-5 ovarian
[48] = system: HS 578T breast
[49] = system: UACC-62 melanoma
[50] = system: HCC-2998 colon
[51] = system: SK-MEL-28 melanoma
[52] = system: SN12C renal
[53] = system: OVCAR-3 ovarian
[54] = system: SW-620 colon

Work on O=C1C=CC(=O)c2cc3cc(CBr)ccc3cc21 yielded a GI50 [1] of 19.1 µM, a TGI [1] of over 57.6 µM and a GI50 [2] of 3.1 µM. The TGI [2] was 29.3 µM, the GI50 [3] was 9.4 µM and the TGI [3] was over 73.9 µM. The GI50 [4] was 24.1 µM, the TGI [4] was 55.7 µM and the GI50 [5] was 1.89 µM. For the same compound, the TGI [5] was over 100 µM, the GI50 [6] was 17.5 µM and the TGI [6] was 34.4 µM. The GI50 [7] was 2.35 µM, the TGI [7] was 6.54 µM and the GI50 [8] was 5.88 µM. For the same compound, the TGI [8] was over 77.3 µM, the GI50 [9] was 14.9 µM and the TGI [9] was 36 µM. The GI50 [10] was 2.34 µM, the TGI [10] was 6.25 µM and the GI50 [11] was 4.33 µM. The TGI [11] was over 25.8 µM, the GI50 [12] was 22 µM and the TGI [12] was over 80.3 µM. The GI50 [13] was 25.9 µM, the TGI [13] was over 73.9 µM and the GI50 [14] was 17.5 µM. For the same compound, the TGI [14] was 38.4 µM, the GI50 [15] was 2.28 µM and the TGI [15] was 5.24 µM. The GI50 [16] was 0.0371 µM, the TGI [16] was 0.0923 µM and the GI50 [17] was 9.73 µM. For the same compound, the TGI [17] was over 100 µM, the GI50 [18] was 6.78 µM and the TGI [18] was 32.4 µM. It also gave a GI50 [19] of 14.4 µM, a TGI [19] of 36.2 µM and a GI50 [20] of 3.54 µM. The TGI [20] was 16.7 µM, the GI50 [21] was 1.82 µM and the TGI [21] was 3.71 µM. It also gave a GI50 [22] of 3.59 µM, a TGI [22] of over 100 µM and a GI50 [23] of 0.339 µM. It also gave a TGI [23] of 6.03 µM, a GI50 [24] of 9.84 µM and a TGI [24] of 30.8 µM. For the same compound, the GI50 [25] was 56.9 µM, the TGI [25] was over 100 µM and the GI50 [26] was 1.95 µM. It also gave a TGI [26] of 8.09 µM, a GI50 [27] of 3.18 µM and a TGI [27] of 9.93 µM. It also gave a GI50 [28] of 16 µM, a TGI [28] of 37.8 µM and a GI50 [29] of 2.75 µM. The TGI [29] was 8.96 µM, the GI50 [30] was 8.58 µM and the TGI [30] was 23.4 µM. It also gave a GI50 [31] of 11 µM, a TGI [31] of 27.9 µM and a GI50 [32] of 11.8 µM. It also gave a TGI [32] of 33.7 µM, a GI50 [33] of 0.606 µM and a TGI [33] of 1.89 µM. For the same compound, the GI50 [34] was 2.12 µM, the TGI [34] was over 26.2 µM and the GI50 [35] was 18.1 µM. It also gave a TGI [35] of over 55 µM, a GI50 [36] of 33.3 µM and a TGI [36] of over 83.5 µM. For the same compound, the GI50 [37] was 2.62 µM, the TGI [37] was over 100 µM and the TGI [38] was 0.2 µM. The GI50 [39] was 21.5 µM, the TGI [39] was 98.1 µM and the GI50 [40] was 9.07 µM. It also gave a GI50 [41] of 5.95 µM, a TGI [41] of 17.3 µM and a GI50 [42] of 4.19 µM. It also gave a TGI [42] of 28.7 µM, a GI50 [43] of 27.4 µM and a TGI [43] of 71.2 µM. The GI50 [44] was 1.44 µM, the TGI [44] was 3.02 µM and the GI50 [45] was 3.85 µM. For the same compound, the TGI [45] was 8.9 µM, the GI50 [46] was 7.75 µM and the TGI [46] was over 73.9 µM. The GI50 [47] was 9.96 µM, the TGI [47] was 33.6 µM and the GI50 [48] was 28.7 µM. It also gave a TGI [48] of over 93.2 µM, a GI50 [49] of 5.61 µM and a TGI [49] of 15.6 µM. The GI50 [50] was 6.16 µM, the TGI [50] was 19.2 µM and the GI50 [51] was 7.31 µM. The TGI [51] was over 63.1 µM, the GI50 [52] was 0.741 µM and the TGI [52] was 2.91 µM. The GI50 [53] was 7.43 µM, the TGI [53] was over 21.8 µM and the GI50 [54] was 2.29 µM. For the same compound, the TGI [54] was 4.97 µM.
